Measured values as given in ChEMBL document CHEMBL4483862, “Open-source discovery of chemical leads for next-generation chemoprotective antimalarials” (2018).

Tested on: Plasmodium berghei
Assay: Luciferase/luciferin-expressing antifolate-resistant parasites were used to infect a culture of HepG2 cells that were pre-incubated with compounds. Infected hepatocytes emit light due to the luciferase reaction. Assay results are presented as the percent inhibition of light emission compared to control. […]
Assay type: functional
Settings: sporozoite; for IC90: read-out: LUCIFERASE INFECTION ASSAY - IC90

SMILES	IC90	also measured
CCOC(=O)c1c(-c2ccccc2)oc2ccc(OCC(O)CNCCN(C)C)cc12 (stereo not given)	> 10 µM	IC50 (PBLUC_HILL_SLOPE 9.38, PBLUC_R_SQUARED 0.614, read-out: LUCIFERASE INFECTION ASSAY - IC50): 8.91 µM
Cc1c(C(=O)NCc2ccc(Cl)c(Cl)c2)sc(=O)n1Cc1ccc(S(=O)(=O)N(C)C)cc1	> 6.41 µM	IC50 (PBLUC_HILL_SLOPE 9.17, PBLUC_R_SQUARED 0.333, read-out: LUCIFERASE INFECTION ASSAY - IC50): 5.25 µM
COc1ccc(CC(N)c2csc(NC(=O)c3cccc(OC(F)(F)F)c3)n2)cc1 (stereo not given)	7.48 µM	IC50 (PBLUC_HILL_SLOPE 9.24, PBLUC_R_SQUARED 0.637, read-out: LUCIFERASE INFECTION ASSAY - IC50): 5.89 µM
Cc1cc(C(=O)Cn2cnc3ccccc32)c(C)n1-c1ccccn1	> 10 µM	IC50 (PBLUC_HILL_SLOPE 9.42, PBLUC_R_SQUARED 0.321, read-out: LUCIFERASE INFECTION ASSAY - IC50): 9.29 µM
Cc1oc(-c2cccs2)nc1CC(=O)NNC(=O)CC12CC3CC(CC(C3)C1)C2	4.57 µM	IC50 (PBLUC_HILL_SLOPE 9.4, PBLUC_R_SQUARED 0.433, read-out: LUCIFERASE INFECTION ASSAY - IC50): 3.62 µM
c1ccc2c(Sc3ncnc4sccc34)cccc2c1	> 11.2 µM	IC50 (PBLUC_HILL_SLOPE 9.33, PBLUC_R_SQUARED 0.332, read-out: LUCIFERASE INFECTION ASSAY - IC50): > 11.2 µM
NC(=O)c1cccc(-c2cn3c(-c4cccc(O)c4)cnc3cn2)c1	> 9.99 µM	IC50 (PBLUC_HILL_SLOPE 9.23, PBLUC_R_SQUARED 0.539, read-out: LUCIFERASE INFECTION ASSAY - IC50): 8.89 µM
CC(C)(C)c1csc(NC(=O)C2CCCN2S(=O)(=O)c2ccc(Br)s2)n1 (stereo not given)	> 10 µM	IC50 (PBLUC_HILL_SLOPE 9.23, PBLUC_R_SQUARED 0.508, read-out: LUCIFERASE INFECTION ASSAY - IC50): 9.84 µM
O=C(NC1CC1)c1ccc(CN(Cc2ccco2)Cc2nc(-c3ccc(F)cc3)no2)cc1	0.482 µM	IC50 (PBLUC_HILL_SLOPE 9.42, PBLUC_R_SQUARED 0.908, read-out: LUCIFERASE INFECTION ASSAY - IC50): 0.382 µM
Nc1ccc(-c2cn3c(-c4cccc(O)c4)cnc3cn2)cn1	> 10.9 µM	IC50 (PBLUC_HILL_SLOPE 9.28, PBLUC_R_SQUARED 0.463, read-out: LUCIFERASE INFECTION ASSAY - IC50): 9.03 µM
Fc1cccc(-c2cnc3cnc(-c4ccc(CNc5ccccc5)cc4)cn23)c1	> 8.37 µM	IC50 (PBLUC_HILL_SLOPE 9.4, PBLUC_R_SQUARED 0.212, read-out: LUCIFERASE INFECTION ASSAY - IC50): > 8.37 µM
CCCCCCCCc1nnc(NC(=O)c2nccnc2N)s1	4.58 µM	IC50 (PBLUC_HILL_SLOPE 9.5, PBLUC_R_SQUARED 0.438, read-out: LUCIFERASE INFECTION ASSAY - IC50): 3.63 µM
COc1ccc(-c2cnc3cnc(-c4cccc(NS(C)(=O)=O)c4)cn23)cc1	3.7 µM	IC50 (PBLUC_HILL_SLOPE 9.6, PBLUC_R_SQUARED 0.49, read-out: LUCIFERASE INFECTION ASSAY - IC50): 2.94 µM
CSc1sc(C#N)c(C)c1-c1ccon1	> 14 µM	IC50 (PBLUC_HILL_SLOPE 9.35, PBLUC_R_SQUARED 0.116, read-out: LUCIFERASE INFECTION ASSAY - IC50): > 14 µM
Cc1c(-c2ccc(Cl)c(S(=O)(=O)N(C)c3ccccc3)c2)oc2ccc(F)cc2c1=O	4.45 µM	IC50 (PBLUC_HILL_SLOPE 9.42, PBLUC_R_SQUARED 0.55, read-out: LUCIFERASE INFECTION ASSAY - IC50): 3.52 µM
COc1ccc(-c2csc3nc(-c4cccnc4)nc(NCCN4CCOCC4)c23)cc1OC	> 10 µM	IC50 (PBLUC_HILL_SLOPE 9.41, PBLUC_R_SQUARED 0.036, read-out: LUCIFERASE INFECTION ASSAY - IC50): 9.3 µM
O=C(NCc1ccc(F)c(Cl)c1)Nc1csc([N+](=O)[O-])c1	> 10 µM	IC50 (PBLUC_HILL_SLOPE 9.52, PBLUC_R_SQUARED 0.452, read-out: LUCIFERASE INFECTION ASSAY - IC50): 8.04 µM
O=C(C[n+]1ccc(NC(=O)c2ccccc2)cc1)c1ccc(F)cc1	> 7.95 µM	IC50 (PBLUC_HILL_SLOPE 9.15, PBLUC_R_SQUARED 0.444, read-out: LUCIFERASE INFECTION ASSAY - IC50): 6.42 µM
CCCNC(=O)c1c(NC(=O)c2cccc(F)c2)nc2ccc(C)cn12	> 9.31 µM	IC50 (PBLUC_HILL_SLOPE 9.17, PBLUC_R_SQUARED 0.612, read-out: LUCIFERASE INFECTION ASSAY - IC50): 7.79 µM
Cc1sc2nc(-c3cccs3)nc(N3CCCN(CC(=O)NC(C)C)CC3)c2c1C	> 10 µM	IC50 (PBLUC_HILL_SLOPE 9.52, PBLUC_R_SQUARED 0.368, read-out: LUCIFERASE INFECTION ASSAY - IC50): 8.07 µM

SMILES	IC90	also measured
COc1cc(OC)cc(C(NS(=O)(=O)c2cc(C(F)(F)F)ccc2Cl)c2nccn2C)c1 (stereo not given)	> 10 µM	IC50 (PBLUC_HILL_SLOPE 9.29, PBLUC_R_SQUARED 0.399, read-out: LUCIFERASE INFECTION ASSAY - IC50): 8.07 µM
Cc1ccc(Sc2ccc(NC(=S)NCC3CCCO3)cc2)c(C)c1 (stereo not given)	> 10 µM	IC50 (PBLUC_HILL_SLOPE 9.48, PBLUC_R_SQUARED 0.239, read-out: LUCIFERASE INFECTION ASSAY - IC50): 8.41 µM
CCN(c1ccccc1)S(=O)(=O)c1ccc(OCC(=O)N(C)Cc2nc3ccccc3s2)cc1	> 10 µM	IC50 (PBLUC_HILL_SLOPE 9.53, PBLUC_R_SQUARED 0.61, read-out: LUCIFERASE INFECTION ASSAY - IC50): 9.27 µM
O=C(c1cc2c(=O)n3ccccc3nc2s1)N(c1ccccn1)C1CCCCC1	> 10 µM	IC50 (PBLUC_HILL_SLOPE 9.6, PBLUC_R_SQUARED 0.179, read-out: LUCIFERASE INFECTION ASSAY - IC50): 9.45 µM
COc1ccc(-c2cc3c(cn2)nc(NCc2cccc(C)c2)n3C)cc1	> 10 µM	IC50 (PBLUC_HILL_SLOPE 9.11, PBLUC_R_SQUARED 0.402, read-out: LUCIFERASE INFECTION ASSAY - IC50): 9.46 µM
COc1ccc(-c2cnc3cnc(-c4ccc(C(=O)NC5CC5)cc4)cn23)cc1	3.59 µM	IC50 (PBLUC_HILL_SLOPE 9.57, PBLUC_R_SQUARED 0.525, read-out: LUCIFERASE INFECTION ASSAY - IC50): 2.85 µM
CCCn1nc(C(=O)Nc2cccc(-c3nc4ccccc4[nH]3)c2)c2ccccc2c1=O	4.7 µM	IC50 (PBLUC_HILL_SLOPE 9.6, PBLUC_R_SQUARED 0.205, read-out: LUCIFERASE INFECTION ASSAY - IC50): 3.74 µM
CCc1cc2c(COC(=O)c3cc(C(C)=O)cn3C)cc(=O)oc2cc1O	> 10 µM	IC50 (PBLUC_HILL_SLOPE 9.37, PBLUC_R_SQUARED 0.164, read-out: LUCIFERASE INFECTION ASSAY - IC50): 8.69 µM
Cc1ccc(Cn2c(NCc3cccs3)nc3ccccc32)cc1	> 9.9 µM	IC50 (PBLUC_HILL_SLOPE 9.45, PBLUC_R_SQUARED 0.348, read-out: LUCIFERASE INFECTION ASSAY - IC50): 8.16 µM
Cc1csc2nc(CNC(c3ccc(C4CCCCC4)cc3)C(C)C)cc(=O)n12 (stereo not given)	4.73 µM	IC50 (PBLUC_HILL_SLOPE 9.21, PBLUC_R_SQUARED 0.523, read-out: LUCIFERASE INFECTION ASSAY - IC50): 3.73 µM
CC(C)Oc1ccc(C(=O)NCC(=O)Nc2nc3c(s2)CCCC3)cc1	4.24 µM	IC50 (PBLUC_HILL_SLOPE 9.11, PBLUC_R_SQUARED 0.281, read-out: LUCIFERASE INFECTION ASSAY - IC50): 3.33 µM
Cc1ccc(C(=O)Nc2nc3cc4c(cc3s2)OCCO4)s1	> 10 µM	IC50 (PBLUC_HILL_SLOPE 9.57, PBLUC_R_SQUARED 0.436, read-out: LUCIFERASE INFECTION ASSAY - IC50): 8.59 µM
CNC(=O)c1ccc(CN(Cc2ccco2)Cc2cc3ccc(C)c(C)c3nc2Cl)cc1	1.48 µM	IC50 (PBLUC_HILL_SLOPE 9.58, PBLUC_R_SQUARED 0.657, read-out: LUCIFERASE INFECTION ASSAY - IC50): 0.741 µM
CNCCCNCc1cccc(OC)c1OCc1ccc(Cl)cc1	> 9.46 µM	IC50 (PBLUC_HILL_SLOPE 9.3, PBLUC_R_SQUARED 0.597, read-out: LUCIFERASE INFECTION ASSAY - IC50): 8.76 µM
CC(C)(C)c1ccc(-c2nnc(SCc3ccccc3)n2-c2cccc(C(F)(F)F)c2)cc1	> 7.06 µM	IC50 (PBLUC_HILL_SLOPE 9.35, PBLUC_R_SQUARED 0.201, read-out: LUCIFERASE INFECTION ASSAY - IC50): 6.61 µM
O=C(Nc1nc(C23CC4CC(CC(C4)C2)C3)cs1)c1cnccn1	> 10 µM	IC50 (PBLUC_HILL_SLOPE 9.13, PBLUC_R_SQUARED 0.249, read-out: LUCIFERASE INFECTION ASSAY - IC50): 8.02 µM
Cc1ccccc1-c1ccc(CN2CCc3c(c(C(=O)NCc4ccccc4)nn3CCO)C2)cc1	2.98 µM	IC50 (PBLUC_HILL_SLOPE 9.2, PBLUC_R_SQUARED 0.549, read-out: LUCIFERASE INFECTION ASSAY - IC50): 2.35 µM
CCC(=O)Nc1ccc(CNC(=O)N2CCN(c3ccccc3C)CC2)cc1	1.73 µM	IC50 (PBLUC_HILL_SLOPE 9.1, PBLUC_R_SQUARED 0.639, read-out: LUCIFERASE INFECTION ASSAY - IC50): 1.36 µM
COc1ccc(Nc2nccc3c2cc(-c2ccccc2OC)n3C)cn1	4.48 µM	IC50 (PBLUC_HILL_SLOPE 9.12, PBLUC_R_SQUARED 0.328, read-out: LUCIFERASE INFECTION ASSAY - IC50): 3.52 µM
Cn1c(Sc2ncnc3sccc23)nc2ccccc21	5.38 µM	IC50 (PBLUC_HILL_SLOPE 9.4, PBLUC_R_SQUARED 0.756, read-out: LUCIFERASE INFECTION ASSAY - IC50): 4.26 µM
